Read-outs that look alike come from different tables or passages of the source.
Tested on: HBV rcDNA
Test: Dual agent combination in HepDE19 cells, rcDNA by Quantigene 2.0 bDNA assay (Examples 5-8)
Format: cell-based, HBV; HepDE19 (HepG2 human hepatocarcinoma derived)
Settings: Hepatitis B virus; for EC50: read-out: Avg. Inhibitor A EC50
Description: In vitro dual agent combination studies were conducted using the method of Prichard and Shipman 1990 (Prichard M N, Shipman C, Jr. 1990. Antiviral Res 14:181-205). The HepDE19 cell culture system is a HepG2 (human hepatocarcinoma) derived cell line that supports HBV DNA replication and cccDNA formation under control the control of a CMV Tet-off promoter system (Guo et al. 2007. J Virol 81:12472-84). HepDE19 (50,000 cells/well) were plated in 96 well collagen-coated tissue-culture treated microtiter plates in DMEM/F12 medium supplemented with 10% fetal bovine serum+1% penicillin-streptomycin with tetracycline (1 μg/mL) and incubated in a humidified incubator at 37° C. and 5% CO2 overnight. Next day, the cells were switched to fresh medium without tetracycline and incubated for 4 hrs at 37° C. and 5% CO2. The cells were switched to fresh medium and treated with inhibitor A and inhibitor B, at concentration range spanning their respective EC50 values. […] The two inhibitors were tested both singly as well as in combinations in a checkerboard fashion such that each concentration of inhibitor A was combined with each concentration of inhibitor B to determine their combination effects on inhibition of rcDNA production. There were four replicates of each concentration combination in each experiment. The plates were incubated for 7 days in a humidified incubator at 37° C. and 5% CO2. The level of rcDNA present in the wells was measured using a Quantigene 2.0 bDNA assay kit (Affymetrix, Santa Clara, Calif.) with HBV specific custom probe set (genotype D ayw) and according to the manufacturer's instructions and read using a luminescence plate reader and the relative luminescence units (RLU) data generated from each well was calculated as % inhibition of the untreated control wells and analyzed using the MacSynergy II program to determine whether the combinations were synergistic, additive or antagonistic using the interpretive guidelines established by Prichard and Shipman (Prichard M N, Shipman C, Jr. 1990. […] Each experiment was repeated at least three times and the averages and standard deviations of individual determinations was calculated to derive the conclusion. Concurrently, in each experiment, the effect of inhibitor combinations on cell viability was assessed using replicate plates in triplicates that were used to determine the ATP content as a measure of cell viability using the Cell-Titer Glo reagent (Promega, Madison, Wis.) as per the manufacturer's instructions.

**Q.** With `Cn1cnc(COC(=O)N[C@H]2CCc3c(C(=O)Nc4ccc(F)c(Cl)c4)ccc(F)c32)n1` [Compound 1] as the compound, how does the inhibition at 0.005 µM (HepDE19, Cmpd 1 0.005 μM, ETV μM by grid row: r7 0.0250, r8 0.0083, r9 0.0028, r10 0.0009, r11 0.0003, r12 0, HepDE19 cells, Expt 1, read-out: AVERAGE % INHIBITION, rcDNA) read?
**A.** Its inhibition at 0.005 µM is -5.55%.

**Q.** What about the inhibition at 0.01 µM (HepDE19, Cmpd 1 0.010 μM, ETV μM by grid row: r7 0.0250, r8 0.0083, r9 0.0028, r10 0.0009, r11 0.0003, r12 0, HepDE19 cells, Expt 1, read-out: AVERAGE % INHIBITION, rcDNA) of the same compound?
**A.** Its inhibition at 0.01 µM is -2.14%.

**Q.** And the inhibition at 0.02 µM (HepDE19, Cmpd 1 0.020 μM, ETV μM by grid row: r7 0.0250, r8 0.0083, r9 0.0028, r10 0.0009, r11 0.0003, r12 0, HepDE19 cells, Expt 1, read-out: AVERAGE % INHIBITION, rcDNA)?
**A.** Its inhibition at 0.02 µM is 20.8%.

**Q.** And the inhibition at 0.039 µM (HepDE19, Cmpd 1 0.039 μM, ETV μM by grid row: r7 0.0250, r8 0.0083, r9 0.0028, r10 0.0009, r11 0.0003, r12 0, HepDE19 cells, Expt 1, read-out: AVERAGE % INHIBITION, rcDNA)?
**A.** Its inhibition at 0.039 µM is 28.3%.

**Q.** And the inhibition at 0.156 µM (HepDE19, Cmpd 1 0.156 μM, ETV μM by grid row: r7 0.0250, r8 0.0083, r9 0.0028, r10 0.0009, r11 0.0003, r12 0, HepDE19 cells, Expt 1, read-out: AVERAGE % INHIBITION, rcDNA)?
**A.** The inhibition at 0.156 µM was 82%.

**Q.** What about the inhibition at 1.25 µM (HepDE19, Cmpd 1 1.25 μM, ETV μM by grid row: r7 0.0250, r8 0.0083, r9 0.0028, r10 0.0009, r11 0.0003, r12 0, HepDE19 cells, Expt 1, read-out: AVERAGE % INHIBITION, rcDNA) of the same compound?
**A.** Its inhibition at 1.25 µM is 98.9%.

**Q.** What about the EC50 (HepDE19, Cmpd 1 in combination study with ETV, n = 3) of the same compound?
**A.** Its EC50 is 59 nM.

**Q.** And the EC50 (HepDE19, Cmpd 1 in combination study with SIRNA-NP, n = 3)?
**A.** The EC50 was 64 nM.

**Q.** And the EC50 (HepDE19, Cmpd 1 in combination study with TAF, n = 4)?
**A.** Its EC50 is 74 nM.

**Q.** What about the EC50 (HepDE19, Cmpd 1 in combination study with TDF, n = 3) of the same compound?
**A.** Its EC50 is 80 nM.

**Q.** What about the inhibition at 0.005 µM (HepDE19, Expt 1 (with TDF), Compound 1 0.005 μM alone, read-out: ADDITIVE INHIBITION) of the same compound?
**A.** Its inhibition at 0.005 µM is -44.9%.

**Q.** And the inhibition at 0.005 µM (HepDE19, Expt 1 (with TDF), Compound 1 0.005 μM alone, read-out: AVERAGE % INHIBITION)?
**A.** Its inhibition at 0.005 µM is -44.9%.

**Q.** And the inhibition at 0.01 µM (HepDE19, Expt 1 (with TDF), Compound 1 0.010 μM alone, read-out: ADDITIVE INHIBITION)?
**A.** The inhibition at 0.01 µM was -40.7%.

**Q.** And the inhibition at 0.01 µM (HepDE19, Expt 1 (with TDF), Compound 1 0.010 μM alone, read-out: AVERAGE % INHIBITION)?
**A.** Its inhibition at 0.01 µM is -40.7%.

**Q.** What about the inhibition at 0.02 µM (HepDE19, Expt 1 (with TDF), Compound 1 0.020 μM alone, read-out: ADDITIVE INHIBITION) of the same compound?
**A.** The inhibition at 0.02 µM was -21.6%.

**Q.** What about the inhibition at 0.02 µM (HepDE19, Expt 1 (with TDF), Compound 1 0.020 μM alone, read-out: AVERAGE % INHIBITION) of the same compound?
**A.** Its inhibition at 0.02 µM is -21.6%.

**Q.** What about the inhibition at 0.039 µM (HepDE19, Expt 1 (with TDF), Compound 1 0.039 μM alone, read-out: ADDITIVE INHIBITION) of the same compound?
**A.** The inhibition at 0.039 µM was 0.64%.

**Q.** What about the inhibition at 0.039 µM (HepDE19, Expt 1 (with TDF), Compound 1 0.039 μM alone, read-out: AVERAGE % INHIBITION) of the same compound?
**A.** The inhibition at 0.039 µM was 0.64%.

**Q.** And the inhibition at 0.156 µM (HepDE19, Expt 1 (with TDF), Compound 1 0.156 μM alone, read-out: ADDITIVE INHIBITION)?
**A.** Its inhibition at 0.156 µM is 68.2%.

**Q.** What about the inhibition at 0.156 µM (HepDE19, Expt 1 (with TDF), Compound 1 0.156 μM alone, read-out: AVERAGE % INHIBITION) of the same compound?
**A.** The inhibition at 0.156 µM was 68.2%.

**Q.** And the inhibition at 1.25 µM (HepDE19, Expt 1 (with TDF), Compound 1 1.250 μM alone, read-out: ADDITIVE INHIBITION)?
**A.** Its inhibition at 1.25 µM is 97.3%.

**Q.** What about the inhibition at 1.25 µM (HepDE19, Expt 1 (with TDF), Compound 1 1.250 μM alone, read-out: AVERAGE % INHIBITION) of the same compound?
**A.** The inhibition at 1.25 µM was 97.3%.

**Q.** And the inhibition at 0.007 µM (HepDE19, Expt 1, Cmpd 1 0.007 μM alone, read-out: AVERAGE % INHIBITION)?
**A.** Its inhibition at 0.007 µM is -23.5%.

**Q.** And the inhibition at 0.067 µM (HepDE19, Expt 1, Cmpd 1 0.067 μM alone)?
**A.** The inhibition at 0.067 µM was 43.7%.

**Q.** And the inhibition at 0.2 µM (HepDE19, Expt 1, Cmpd 1 0.200 μM alone)?
**A.** The inhibition at 0.2 µM was 78.4%.

**Q.** What about the inhibition at 0.6 µM (HepDE19, Expt 1, Cmpd 1 0.600 μM alone) of the same compound?
**A.** Its inhibition at 0.6 µM is 92.9%.

**Q.** And the inhibition at 0.005 µM (HepDE19, Expt 1, Compound 1 0.005 μM alone, read-out: AVERAGE % INHIBITION)?
**A.** The inhibition at 0.005 µM was -81.7%.

**Q.** And the inhibition at 0.01 µM (HepDE19, Expt 1, Compound 1 0.010 μM alone, read-out: AVERAGE % INHIBITION)?
**A.** Its inhibition at 0.01 µM is -86.4%.

**Q.** And the inhibition at 0.02 µM (HepDE19, Expt 1, Compound 1 0.020 μM alone, read-out: AVERAGE % INHIBITION)?
**A.** Its inhibition at 0.02 µM is -84.7%.

**Q.** And the inhibition at 0.039 µM (HepDE19, Expt 1, Compound 1 0.039 μM alone, read-out: AVERAGE % INHIBITION)?
**A.** Its inhibition at 0.039 µM is -14.2%.

**Q.** And the inhibition at 0.156 µM (HepDE19, Expt 1, Compound 1 0.156 μM alone, read-out: AVERAGE % INHIBITION)?
**A.** Its inhibition at 0.156 µM is 59.4%.

**Q.** What about the inhibition at 1.25 µM (HepDE19, Expt 1, Compound 1 1.250 μM alone, read-out: AVERAGE % INHIBITION) of the same compound?
**A.** The inhibition at 1.25 µM was 98.3%.

**Q.** What about the inhibition at 0.007 µM (HepDE19, Expt 2 (with TDF), Compound 1 0.007 μM alone, read-out: AVERAGE % INHIBITION) of the same compound?
**A.** The inhibition at 0.007 µM was -35.1%.

**Q.** And the inhibition at 0.067 µM (HepDE19, Expt 2 (with TDF), Compound 1 0.067 μM alone)?
**A.** The inhibition at 0.067 µM was 28.1%.

**Q.** What about the inhibition at 0.2 µM (HepDE19, Expt 2 (with TDF), Compound 1 0.200 μM alone) of the same compound?
**A.** Its inhibition at 0.2 µM is 80.5%.

**Q.** What about the inhibition at 0.6 µM (HepDE19, Expt 2 (with TDF), Compound 1 0.600 μM alone) of the same compound?
**A.** Its inhibition at 0.6 µM is 95.2%.

**Q.** What about the inhibition at 0.005 µM (HepDE19, Expt 2, Cmpd 1 0.005 μM alone, read-out: AVERAGE % INHIBITION) of the same compound?
**A.** The inhibition at 0.005 µM was 5.58%.

**Q.** What about the inhibition at 0.01 µM (HepDE19, Expt 2, Cmpd 1 0.010 μM alone, read-out: AVERAGE % INHIBITION) of the same compound?
**A.** Its inhibition at 0.01 µM is -0.61%.

**Q.** And the inhibition at 0.02 µM (HepDE19, Expt 2, Cmpd 1 0.020 μM alone, read-out: AVERAGE % INHIBITION)?
**A.** The inhibition at 0.02 µM was 6.6%.

**Q.** And the inhibition at 0.039 µM (HepDE19, Expt 2, Cmpd 1 0.039 μM alone, read-out: AVERAGE % INHIBITION)?
**A.** Its inhibition at 0.039 µM is 25.9%.

**Q.** What about the inhibition at 0.156 µM (HepDE19, Expt 2, Cmpd 1 0.156 μM alone, read-out: AVERAGE % INHIBITION) of the same compound?
**A.** Its inhibition at 0.156 µM is 84.1%.

**Q.** What about the inhibition at 1.25 µM (HepDE19, Expt 2, Cmpd 1 1.250 μM alone, read-out: AVERAGE % INHIBITION) of the same compound?
**A.** The inhibition at 1.25 µM was 98.3%.
